# Reference: PubChem BioAssay (NCI)
#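 Protocol summary: plate cells (96-well), add compound at 5 concentrations, incubate 48 h, interpolate endpoints linearly. Here, GI50 denotes the concentration required for 50% inhibition of growth. The concentration for full growth arrest is given as TGI.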 Where a SMILES comes first, the peptide text is derived from it. The star is where a group is joined. Boc = CC(C)(C)OC(=O)*
# Tests used:
# Test in all cases: inhibition of tumour cell growth, NCI panel, 48 h
# UACC-257 melanoma = system: UACC-257 melanoma
# SK-MEL-5 melanoma = system: SK-MEL-5 melanoma
# HCC-2998 colon = system: HCC-2998 colon
# SR leukemia = system: SR leukemia
# LOX IMVI melanoma = system: LOX IMVI melanoma
# MDA-MB-435 = system: MDA-MB-435
# TK-10 renal = system: TK-10 renal
# PC-3 prostate = system: PC-3 prostate
# SK-MEL-2 melanoma = system: SK-MEL-2 melanoma
# A549 NSCLC = system: A549 NSCLC
# MDA-N = system: MDA-N
# RXF 393 renal = system: RXF 393 renal
# NCI-H23 lung = system: NCI-H23 lung
# NCI/ADR-RES ovarian = system: NCI/ADR-RES ovarian
SMILES,TGI (UACC-257 melanoma) [µM],TGI (SK-MEL-5 melanoma) [µM],TGI (HCC-2998 colon) [µM],TGI (SR leukemia) [µM],TGI (LOX IMVI melanoma) [µM],TGI (MDA-MB-435) [µM],TGI (TK-10 renal) [µM],TGI (PC-3 prostate) [µM],TGI (SK-MEL-2 melanoma) [µM],TGI (A549 NSCLC) [µM],TGI (MDA-N) [µM],TGI (RXF 393 renal) [µM],TGI (NCI-H23 lung) [µM],TGI (NCI/ADR-RES ovarian) [µM],GI50 (SK-MEL-5 melanoma) [µM],GI50 (SR leukemia) [µM],GI50 (RXF 393 renal) [µM]
CC(C)C1CC(CO)(CNc2nc(N)nc(Cl)c2/C=N\O)C1 (stereo not drawn),11.8,2.82,17.8,> 54.2,22.5,28.9,61.1,26.5,26.5,18.8,23.9,55.1,24.3,27.5,,,
COc1ccc2nc3c(C)cc4ccccc4n3c2c1,> 100,> 100,> 100,> 100,,> 100,> 100,> 100,,> 100,> 100,> 100,> 100,> 100,,,
CC(O)CC(=O)CO[C@H]1[C@H](O)[C@@H](O)[C@@H](O)[C@@H]2NC(=O)c3c(cc4c(c3O)OCO4)[C@H]21 (stereo partly drawn),1.02,0.0623,0.0609,0.125,0.117,0.175,0.238,0.303,0.261,0.352,0.446,0.131,0.457,27.6,,,
COc1ccc(-c2[nH]c(-c3ccc(OC)cc3)c(-c3ccccn3)c2-c2ccccn2)cc1,> 100,32.2,46.3,> 100,65.5,> 100,> 100,> 100,,> 100,> 100,> 100,> 100,> 100,,,
COc1ccc(OC)c(N=Cc2cc(OC)c(OC)c(OC)c2)c1,> 100,> 100,> 100,> 100,> 100,> 76.2,> 100,> 100,> 100,> 100,> 100,> 100,> 100,> 100,,,
C[C@@H](Oc1ccc(Oc2cnc3ccc(Cl)cc3n2)cc1)C(=O)O,> 100,> 100,> 100,> 100,> 100,> 100,> 100,> 100,> 100,> 100,> 100,> 100,> 100,> 100,> 82.1,> 24.3,> 30.5
COC(=O)CNC(=O)CNC(=O)CSc1nnc(COc2ccc(Cl)cc2)n1-c1ccccc1,40.5,41,> 100,86.6,57.7,34.5,> 100,> 100,43.9,> 100,55.4,36.8,> 100,> 100,,,
O=[N+]([O-])c1cnc(N(CCO)CCO)s1,> 100,> 100,> 100,> 100,> 100,> 100,,> 100,> 100,> 100,> 100,> 100,> 100,> 100,,,
Cc1nn(C(=O)c2ccc(Cl)cc2)c2c1C(c1ccccc1O)SC(N)=N2 (stereo not drawn),> 10,> 10,> 10,> 10,> 10,> 10,> 10,> 10,> 10,> 10,> 10,> 10,> 10,> 10,,,
CC1(c2nc3ccccc3[nH]2)CCC(C#N)C(C)(C)O1 (stereo not drawn),> 100,> 100,> 100,> 100,> 100,> 100,> 100,> 100,> 100,> 100,> 100,> 100,> 100,> 100,,,
CC(NC(=O)C1CCCN1C(=O)CNC(=O)OC(C)(C)C)C(=O)O (stereo not drawn) (Boc-Gly-Pro-Ala-OH; configuration not given here),> 100,> 100,> 100,> 100,,> 100,> 100,> 100,> 100,> 100,> 100,> 100,> 100,> 100,,,
CCOC(CN(C)C(=O)Nc1ccc(Cl)c(Cl)c1)OCC,> 10,> 10,> 10,> 10,> 10,> 10,> 10,> 10,> 10,> 10,> 10,> 10,> 10,> 10,,,
Clc1cc2nc(C3CCCCO3)[nH]c2cc1Cl (stereo not drawn),> 100,> 100,96.9,> 100,> 100,> 44.6,> 100,> 100,> 100,> 100,22.8,> 52.6,> 59.8,> 52.1,,,
CCOc1cc(/C=N/c2nc3cc4sc(/N=C/c5ccc(O)c(OCC)c5)nc4cc3s2)ccc1O,> 100,> 100,> 100,> 100,> 100,> 100,> 100,> 100,> 100,> 100,> 100,> 100,> 100,> 100,,,
O=C(CCc1ccc(O)c(O)c1)NCCc1ccccc1,> 100,> 48.7,> 100,47.5,> 100,29.3,> 100,> 51.9,> 93.7,> 100,43.3,> 100,> 100,> 100,,,
O=C(c1cc(Cl)cc(Cl)c1)N(Cc1cccnc1)C(=S)N(Cc1cccnc1)C(=O)c1cc(Cl)cc(Cl)c1,> 100,76,49.6,> 100,> 100,> 100,89.6,60.6,99.2,> 100,> 100,92.7,> 100,> 100,,,

SMILES,TGI (UACC-257 melanoma) [µM],TGI (SK-MEL-5 melanoma) [µM],TGI (HCC-2998 colon) [µM],TGI (SR leukemia) [µM],TGI (LOX IMVI melanoma) [µM],TGI (MDA-MB-435) [µM],TGI (TK-10 renal) [µM],TGI (PC-3 prostate) [µM],TGI (SK-MEL-2 melanoma) [µM],TGI (A549 NSCLC) [µM],TGI (MDA-N) [µM],TGI (RXF 393 renal) [µM],TGI (NCI-H23 lung) [µM],TGI (NCI/ADR-RES ovarian) [µM],GI50 (SK-MEL-5 melanoma) [µM],GI50 (SR leukemia) [µM],GI50 (RXF 393 renal) [µM]
OCC(O)C(O)C(O)C(O)CNCCO/N=C1/C(c2c(O)[nH]c3ccccc23)=Nc2ccccc21 (stereo not drawn),37.9,16.3,28.7,25.3,17.3,20.4,> 50,30.8,15.7,> 50,19.4,39.2,23.7,> 50,,,
CC1=NN(c2cccc(Cl)c2)C2(C1=Cc1cccs1)C(Cl)C(=O)N2c1nc2ccccc2s1 (stereo not drawn),57.3,36.2,35.3,48.5,42.1,> 100,66.3,48.7,36.5,63.7,48.1,45.8,47.2,45.4,,,
N#Cc1sc2c(c1OC(=O)c1ccc(Cl)cc1)c(=O)n(-c1ccccc1)c(=S)n2-c1ccccc1,> 100,38.8,52.2,75.9,37.3,52.5,88.7,80.2,,> 100,55.1,50.7,65.8,73.2,,,
CN1C(=O)N/C(=C\c2ccc(S(=O)(=O)N/N=C/c3ccccc3)cc2)C1=O,> 100,27.7,> 100,> 100,> 100,> 100,> 100,> 100,> 100,> 100,> 100,98.1,> 100,> 100,,,
COc1ccc2nc3cc([N+](=O)[O-])ccc3c(NNc3ccc([N+](=O)[O-])cc3)c2c1,16,61.4,69.4,> 69,> 100,> 100,> 24.2,> 100,> 96.2,> 100,> 100,> 100,> 100,> 100,,,
CCOC(=O)c1cc(C2=CCNC2=O)c(-c2cc(C)no2)[nH]1,> 100,> 100,> 100,> 100,> 100,> 100,> 100,> 100,> 100,> 100,> 100,> 100,> 100,> 100,,,
CCCCCCCCCC(=O)NCCc1c[nH]c2ccc(OC)cc12,41.8,34.3,36.1,> 100,27.6,60.3,35.1,28.9,30.5,40.1,35.5,38,31.6,38.4,,,
COc1ccc(/C=C2\C[C@H]3[C@@H]4CC=C5C[C@@H](OC(C)=O)CC[C@]5(C)[C@H]4CC[C@]3(C)C2=O)cc1OC,> 100,26.4,> 100,> 100,> 100,> 100,,> 100,> 100,> 100,> 100,> 100,> 100,> 100,,,
COC(=O)CN=C1NC(=S)N(Cc2ccc(OC)cc2)C12CCCC2,> 100,,> 100,> 100,,> 100,,> 100,> 100,> 100,> 100,> 100,> 100,> 100,,,
COC(=O)[C@H](C)NC(=O)C1(CNC(=O)[C@H](C)NC(=O)OC(C)(C)C)Cc2ccccc2-c2ccccc2C1,> 78.9,> 55,> 59.8,43.4,9.13,38.2,> 59.2,> 75.4,> 68.9,48.8,> 58.5,> 88.9,37.8,41.4,,,
C/C(=N\Nc1nc2ccccc2o1)c1ncccn1,15.6,13.9,20.7,0.228,0.199,23.4,18.2,19.9,13.6,12.1,> 54.5,5.59,5.87,< 0.0335,,,
COc1ccc(N=C(CS(=O)c2ccc(C)cc2)C(F)(F)F)cc1 (stereo not drawn),> 100,> 100,> 100,> 100,> 100,> 100,> 100,> 100,> 100,> 100,> 100,> 100,> 100,> 100,,,
COc1ccc(C[n+]2cccc(O)c2)cc1,,> 100,> 100,> 100,,> 100,> 100,> 100,> 100,> 100,> 100,> 100,> 100,> 100,,,
CC1(C)CCCC2CC2CCC(C)(C)C1=O (stereo not drawn),> 100,> 100,21.7,45.6,> 100,> 100,> 100,> 100,> 100,> 100,> 100,87.7,> 100,> 100,,,
CCOC(=O)NC(Nc1ccc(S(=O)(=O)Nc2ccc(OC)nn2)cc1)(C(F)(F)F)C(F)(F)F,98.6,32,> 100,55.8,82,35.8,68.8,> 100,,> 100,> 100,34.8,96.4,59.9,,,
Brc1c2c(c(Br)c3nsnc13)N=S=N2,> 100,42.5,> 100,14.1,13.9,> 74.4,47.3,> 100,51,> 100,> 73,35.9,> 69.1,79.8,,,
